This assay has as its system NL5901, CL2006 and CL4176 worms. In words: Motor function (thrashing, paralysis) in worms expressing human α-synuclein or Aβ in muscles. The assay is classed as in vivo, C. elegans. The following applies: NL5901, human α-synuclein within muscles. The source says: FIG. 21, panels A-F: AIC106 prevents neuronal loss and proteotoxicity in strains expressing human neurotoxic proteins. Panel A) Dopaminergic neuronal loss in day-5 UA44 worms was quantified by scoring percentage of worms with intact 4-CEP neurons in AIC106 and DMSO-control treatment. [N=3 independent experiments (mean±SD). ***p<0.001, by one-way ANOVA with Tukey's multiple comparisons test]. Motor function in (panel B) day-7 NL5901 and (panel C) day-5 CL2006 worms were quantified by scoring number of thrashes for an individual worm over the period of 30 seconds (dots) in AIC106 and DMSO-control treatment. […] Panel D) Motor function in temperature sensitive (enhanced paralysis at 25° C.) CL4176 worms was determined by scoring percent of worms paralyzed in AIC106 and DMSO-control treatment. […] P-value calculated by Logrank test]. Panel F) Effect of AIC106 on polyQ40 aggregation was determined by scoring number of polyQ40-YFP fluorescent puncta in an individual AM141 worm treated with AIC106 and DMSO-control. […]
FIG. 22, panels A-H: AIC106-induced HLH-30 expression is mediated by the nuclear hormone receptor DAF-12. […] Panel B) Relative fold change in mRNA of hlh-30 compared to DMSO-control was quantified using qRT-PCR in young adult wild-type N2 and daf-12(rh61rh411) worms post-24 hours treatment with AIC106. […]

Each structure is given as a SMILES string.

For `Cc1cccc(C)c1OCc1cc(C(=O)N2CCC(c3ccncc3)CC2)no1` [DFA, dafadine-A, reference compound], the “motor function (thrashing rate)” value is listed as “improved motor function”.
Turning to `O=c1oc2c3c4c(cc2c2c1CCC2)CCCN4CCC3` [C1, 2,3,6,7,10,11-Hexahydro-1H,5H-cyclopenta(3,4)(1)benzopyrano(6,7,8-ij)quinolizin-12(9H)-one], the “motor function (thrashing rate)” value was “improved motor function”.

These data come from US12673039B2, “Methods of inducing autophagy using coumarin derivatives and related compounds” (Buck Institute for Research on Aging, priority 2019, dated 2026).
